Experimental data: US8029764B2, “Methods for detection of colorectal cancer” (The Johns Hopkins University, priority 2001, dated 2011)

Test system: colorectal tissue transcripts
Assay: SAGE of normal, adenoma and cancer colorectal tissue (transcript tag counts)
Set-up: species or system human
How it was run: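 SAGE libraries from two normal colonic epithelium samples, two colorectal adenomas (FAP patients, >70% neoplastic cells) and two colorectal cancers. Transcripts counted as 15-base 3′ tags from oligo(dT)-selected mRNA; repeated ditags, linkers and MHC-locus tags excluded before statistical library comparison.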

[1] = normal colorectal tissue library 1
[2] = normal colorectal tissue library 2

## GCAGGGCCTC (chemistry not fully specified)
SAGE library AD1
  AD1 (SAGE tag count): 41
SAGE library AD2
  AD2 (SAGE tag count): 69
SAGE library CA1
  CA1 (SAGE tag count): 39
SAGE library CA2
  CA2 (SAGE tag count): 51
SAGE library NC1
  NC1 (SAGE tag count): 128
SAGE library NC2
  NC2 (SAGE tag count): 165

## TGGCCATCTG (chemistry not fully specified)
Adenoma library 1
  AD1 (SAGE tag count): 8
Adenoma library 2
  AD2 (SAGE tag count): 7
Cancer library 1
  CA1 (SAGE tag count): 3
Cancer library 2
  CA2 (SAGE tag count): 4
[1]
  NC1 (SAGE tag count): 30
[2]
  NC2 (SAGE tag count): 24

## GCCCACGTCA (chemistry not fully specified)
SAGE library AD1
  AD1 (SAGE tag count): 0
SAGE library AD2
  AD2 (SAGE tag count): 0
SAGE library CA1
  CA1 (SAGE tag count): 0
SAGE library CA2
  CA2 (SAGE tag count): 0
SAGE library NC1
  NC1 (SAGE tag count): 7
SAGE library NC2
  NC2 (SAGE tag count): 8

## GGAACTGTGA (chemistry not fully specified)
SAGE library AD1
  AD1 (SAGE tag count): 10
SAGE library AD2
  AD2 (SAGE tag count): 18
SAGE library CA1
  CA1 (SAGE tag count): 10
SAGE library CA2
  CA2 (SAGE tag count): 2
SAGE library NC1
  NC1 (SAGE tag count): 90
SAGE library NC2
  NC2 (SAGE tag count): 84

## ATGATGGCAC (chemistry not fully specified; the letters are possibly those of the target site)
SAGE library AD1
  AD1 (SAGE tag count): 1
SAGE library AD2
  AD2 (SAGE tag count): 0
SAGE library CA1
  CA1 (SAGE tag count): 1
SAGE library CA2
  CA2 (SAGE tag count): 0
SAGE library NC1
  NC1 (SAGE tag count): 12
SAGE library NC2
  NC2 (SAGE tag count): 32

## ATGGTGGGGG (chemistry not fully specified)
SAGE library AD1
  AD1 (SAGE tag count): 11
SAGE library AD2
  AD2 (SAGE tag count): 9
SAGE library CA1
  CA1 (SAGE tag count): 1
SAGE library CA2
  CA2 (SAGE tag count): 2
SAGE library NC1
  NC1 (SAGE tag count): 25
SAGE library NC2
  NC2 (SAGE tag count): 30

## TAAATTGCAA (chemistry not fully specified)
Adenoma library 1
  AD1 (SAGE tag count): 8
Adenoma library 2
  AD2 (SAGE tag count): 17
Cancer library 1
  CA1 (SAGE tag count): 5
Cancer library 2
  CA2 (SAGE tag count): 3
[1]
  NC1 (SAGE tag count): 103
[2]
  NC2 (SAGE tag count): 59

## GATGACCCCC (chemistry not fully specified)
SAGE library AD1
  AD1 (SAGE tag count): 4
SAGE library AD2
  AD2 (SAGE tag count): 3
SAGE library CA1
  CA1 (SAGE tag count): 3
SAGE library CA2
  CA2 (SAGE tag count): 3
SAGE library NC1
  NC1 (SAGE tag count): 42
SAGE library NC2
  NC2 (SAGE tag count): 49

## ATGGCACGGA (chemistry not fully specified; the letters are possibly those of the target site)
SAGE library AD1
  AD1 (SAGE tag count): 1
SAGE library AD2
  AD2 (SAGE tag count): 1
SAGE library CA1
  CA1 (SAGE tag count): 3
SAGE library CA2
  CA2 (SAGE tag count): 0
SAGE library NC1
  NC1 (SAGE tag count): 6
SAGE library NC2
  NC2 (SAGE tag count): 21

## CGGTGGGACC (target site or template, no part of the molecule; chemistry not given here)
SAGE library AD1
  AD1 (SAGE tag count): 1
SAGE library AD2
  AD2 (SAGE tag count): 1
SAGE library CA1
  CA1 (SAGE tag count): 3
SAGE library CA2
  CA2 (SAGE tag count): 3
SAGE library NC1
  NC1 (SAGE tag count): 7
SAGE library NC2
  NC2 (SAGE tag count): 14

## ACCCAACTGC (chemistry not fully specified)
SAGE library AD1
  AD1 (SAGE tag count): 0
SAGE library AD2
  AD2 (SAGE tag count): 0
SAGE library CA1
  CA1 (SAGE tag count): 0
SAGE library CA2
  CA2 (SAGE tag count): 0
SAGE library NC1
  NC1 (SAGE tag count): 12
SAGE library NC2
  NC2 (SAGE tag count): 3

## AATGAGAAGG (chemistry not fully specified)
SAGE library AD1
  AD1 (SAGE tag count): 0
SAGE library AD2
  AD2 (SAGE tag count): 0
SAGE library CA1
  CA1 (SAGE tag count): 1
SAGE library CA2
  CA2 (SAGE tag count): 0
SAGE library NC1
  NC1 (SAGE tag count): 11
SAGE library NC2
  NC2 (SAGE tag count): 3

## GGGACGAGTG (chemistry not fully specified)
SAGE library AD1
  AD1 (SAGE tag count): 1
SAGE library AD2
  AD2 (SAGE tag count): 3
SAGE library CA1
  CA1 (SAGE tag count): 6
SAGE library CA2
  CA2 (SAGE tag count): 1
SAGE library NC1
  NC1 (SAGE tag count): 20
SAGE library NC2
  NC2 (SAGE tag count): 6

## TTTCTCGTCG (chemistry not fully specified)
Adenoma library 1
  AD1 (SAGE tag count): 2
Adenoma library 2
  AD2 (SAGE tag count): 3
Cancer library 1
  CA1 (SAGE tag count): 0
Cancer library 2
  CA2 (SAGE tag count): 2
[1]
  NC1 (SAGE tag count): 10
[2]
  NC2 (SAGE tag count): 16
